The supplement of paper PMC10307832

Key:
Assay in all cases: relative viability (nuclei count vs DMSO), 5 days (fraction); higher = more cells survive
[1] = compound: COc1cc2nc(N3CCCN(C)CC3)nc(NC3CCN(Cc4ccccc4)CC3)c2cc1OC + CC(=O)Nc1cccc(-n2c(=O)n(C3CC3)c(=O)c3c(Nc4ccc(I)cc4F)n(C)c(=O)c(C)c32)c1 [Trametinib] (partner 0.02 µM)
Outline: (§1)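 Relative viability is defined as nuclei in treated wells over nuclei in vehicle wells. Duplicate plates were run and medians reported. Lung cancer cell lines in 1536-well plates were dosed by pin tool one day after seeding, with one drug or with a fixed anchor-drug dose plus five library-drug doses (not always all listed) in √10 steps, and nuclei were counted after 5 days.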

AZD6482 = compound: Cc1cc([C@@H](C)Nc2ccccc2C(=O)O)c2nc(N3CCOCC3)cc(=O)n2c1 [AZD6482]
Outline: (§2)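 Lung cancer cell lines were seeded into 1536-well plates, kept overnight at 37 °C and pinned with five library-drug doses (not always all listed) spaced by √10. After 5 days, nuclei were Hoechst-stained, imaged at 4× and counted with MetaXpress. Viability is treated-well nuclei over vehicle-well nuclei, taken as a median across plates. Plates needed control CV below 25% and at least one doubling.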

[2] = compound: COc1cc2nc(N3CCCN(C)CC3)nc(NC3CCN(Cc4ccccc4)CC3)c2cc1OC
Outline: as §2

AZD6482 + Navitoclax = compound: Cc1cc([C@@H](C)Nc2ccccc2C(=O)O)c2nc(N3CCOCC3)cc(=O)n2c1 [AZD6482] + CC1(C)CCC(c2ccc(Cl)cc2)=C(CN2CCN(c3ccc(C(=O)NS(=O)(=O)c4ccc(N[C@H](CCN5CCOCC5)CSc5ccccc5)c(S(=O)(=O)C(F)(F)F)c4)cc3)CC2)C1 [Navitoclax] (partner 0.5 µM)
Outline: as §1

| Cell Line | relative viability ([1]; first compound 0.6325 µM) | relative viability ([1]; first compound 6.325 µM) | relative viability (AZD6482; 0.08 µM) | relative viability (AZD6482; 0.253 µM) | relative viability (AZD6482; 0.8 µM) | relative viability (AZD6482; 2.53 µM) | relative viability (AZD6482; 8 µM) | relative viability ([2]; 0.2 µM) | relative viability ([2]; 0.6325 µM) | relative viability ([2]; 2 µM) | relative viability ([2]; 6.325 µM) | relative viability (AZD6482 + Navitoclax; first compound 0.08 µM) | relative viability (AZD6482 + Navitoclax; first compound 0.253 µM) | relative viability (AZD6482 + Navitoclax; first compound 0.8 µM) | relative viability (AZD6482 + Navitoclax; first compound 2.53 µM) | relative viability (AZD6482 + Navitoclax; first compound 8 µM) | relative viability ([1]; first compound 0.2 µM) | relative viability ([1]; first compound 2 µM) |
| --- | --- | --- | --- | --- | --- | --- | --- | --- | --- | --- | --- | --- | --- | --- | --- | --- | --- | --- |
| NCI-H1648 | 0.511 | 0.532 | 0.888 | 0.863 | 0.954 | 0.519 | 0.599 | 0.713 | 0.798 | 0.757 | 1.13 | – | – | – | – | – | – | – |
| SK-MES-1 | 0.56 | 0.471 | 0.794 | 0.946 | 0.709 | 0.405 | 0.444 | 1.01 | 1.01 | 1.03 | 0.791 | 1.08 | 1.17 | 0.923 | 0.493 | 0.572 | 0.597 | 0.599 |
| HCC-366 | 0.401 | 0.239 | 0.975 | 0.979 | 0.996 | 0.885 | 0.827 | 1.01 | 1.03 | 0.968 | 1.01 | 0.937 | 1.01 | 1.11 | 0.901 | 0.908 | 0.335 | 0.358 |
| 201T | 0.702 | 0.675 | 0.977 | 0.97 | 0.969 | 0.771 | 0.958 | 0.976 | 1.05 | 1.01 | 0.983 | 1.22 | 1.17 | 1.19 | 1.12 | 1.17 | 0.701 | 0.71 |
| HCC-827 | 0.558 | 0.542 | 0.979 | 1.02 | 1.02 | 0.854 | 0.918 | 1.05 | 1.04 | 1 | 1.01 | 0.938 | 1.01 | 1.07 | 0.899 | 0.898 | 0.533 | 0.518 |
| NCI-H647 | 0.495 | 0.238 | 0.797 | 0.564 | 0.859 | 0.513 | 0.646 | 0.872 | 1.06 | 1.04 | 0.764 | 0.949 | – | 0.929 | 0.555 | 0.806 | 0.514 | 0.527 |
| NCI-H2023 | 0.577 | 0.116 | 0.923 | 0.881 | 0.909 | 0.567 | 0.662 | 0.949 | 0.995 | 0.93 | 0.516 | 0.891 | 0.999 | 0.803 | 0.615 | 0.621 | 0.598 | 0.501 |
| NCI-H520 | 0.637 | 0.176 | 0.713 | 0.627 | 0.623 | 0.208 | 0.337 | 1.02 | 0.912 | 1.02 | 0.736 | 0.839 | 0.785 | 0.703 | – | 0.344 | 0.744 | 0.674 |
| RERF-LC-KJ | 0.862 | 0.803 | 0.875 | 0.888 | 0.784 | 0.878 | 0.763 | 0.995 | 0.977 | 1.04 | 0.912 | 0.584 | 0.854 | 0.802 | 0.52 | 0.874 | 0.829 | 0.928 |
| A-427 | 0.677 | 0.674 | 0.965 | 0.884 | 1.02 | 0.651 | 0.974 | 0.922 | 1.06 | 1.01 | 0.882 | 0.861 | 0.903 | 0.916 | 0.757 | 0.947 | 0.756 | 0.739 |
| NCI-H441 | 0.532 | 0.33 | 1.01 | 0.896 | 1.22 | – | 1.02 | 0.985 | 0.825 | 1.03 | 0.81 | 0.752 | 0.59 | 0.563 | 0.702 | 0.632 | 0.366 | 0.422 |
| NCI-H1703 | – | – | 0.861 | 0.797 | 0.676 | 0.332 | 0.414 | 1.09 | 0.789 | 0.975 | 0.571 | 0.902 | 0.865 | 0.822 | 0.338 | 0.422 | – | – |
| NCI-H1792 | 0.47 | 0.399 | 0.753 | 0.758 | 0.878 | 0.412 | 0.496 | 0.821 | 1.06 | 0.952 | 1.11 | 0.508 | 0.511 | 0.566 | 0.341 | 0.463 | 0.435 | 0.466 |
| Calu-6 | – | – | 0.951 | 0.938 | 0.992 | 0.824 | 0.875 | 0.968 | 0.942 | 1.09 | 0.913 | 0.662 | 0.699 | 0.754 | 0.57 | 0.602 | – | – |
| SK-LU-1 | 0.541 | 0.459 | – | 0.978 | 1.03 | 0.722 | 0.592 | 1.01 | 1.01 | 1.08 | 1.02 | – | 0.74 | 1.04 | 0.834 | 0.93 | 0.554 | 0.516 |
| PC-3 [JPC-3] | 0.761 | 0.507 | 0.899 | 1.06 | 1.08 | 0.814 | 0.985 | 1.06 | 1.02 | 1.06 | 0.959 | 0.727 | 0.665 | 0.851 | 0.756 | 0.679 | 0.641 | 0.745 |
